Source: patent US20020155565A1, “FAP-activated anti-tumor compounds” (priority 2000, published 2002)
Where a SMILES comes first, the peptide text is derived from it. [ ]: non-standard residue; d: D form. The star is where a group is joined. X1 = Cc1c(CC(=O)O)c(=O)oc2cc(N*)ccc12; Cbz = O=C(OCc1ccccc1)*; NMeA = CN[CH](C)C(=O)O; Sar = CNCC(=O)O

Biological target: T1, FAP (cell extract from 293 cells stably transfected with FAP) (Homo sapiens, UniProt Q12884)
T1 construct: Cell extract from 293 cells stably transfected with FAP prepared as described; expressed in transfected cells; host or cells: human embryonic kidney 293 cells (clone 293-I/2), vector pFAP.38
T1 sequence (Q12884 1-760): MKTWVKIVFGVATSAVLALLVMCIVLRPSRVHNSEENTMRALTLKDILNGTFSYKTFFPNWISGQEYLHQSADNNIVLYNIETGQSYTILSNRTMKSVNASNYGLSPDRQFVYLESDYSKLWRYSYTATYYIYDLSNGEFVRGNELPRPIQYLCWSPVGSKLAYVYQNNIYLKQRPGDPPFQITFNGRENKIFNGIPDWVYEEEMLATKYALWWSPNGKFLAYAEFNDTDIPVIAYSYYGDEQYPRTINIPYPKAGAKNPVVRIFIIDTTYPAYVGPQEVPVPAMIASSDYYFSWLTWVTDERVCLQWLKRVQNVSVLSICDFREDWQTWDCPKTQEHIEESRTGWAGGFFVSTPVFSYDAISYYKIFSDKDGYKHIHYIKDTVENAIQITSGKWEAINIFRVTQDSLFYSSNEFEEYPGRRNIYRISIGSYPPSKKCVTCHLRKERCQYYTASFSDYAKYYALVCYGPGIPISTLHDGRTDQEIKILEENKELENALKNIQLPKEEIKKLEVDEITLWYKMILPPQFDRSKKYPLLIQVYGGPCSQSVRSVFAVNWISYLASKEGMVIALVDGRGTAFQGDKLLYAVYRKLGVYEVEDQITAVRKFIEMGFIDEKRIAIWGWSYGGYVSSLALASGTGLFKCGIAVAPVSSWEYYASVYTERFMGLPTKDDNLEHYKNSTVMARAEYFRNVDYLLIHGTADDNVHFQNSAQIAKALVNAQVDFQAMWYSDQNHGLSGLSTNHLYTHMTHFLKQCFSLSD
Test: Assay for cleavage of AMCA substrates by FAP
Format: biochemical
Conditions: 1 ng FAP enzyme, 20 μl 2.5 mM substrate in 100 μl, room temperature, 1 hour; FAP-negative 293 control extract subtracted
Method: The turnover and cleavage rate have been determined with the aid pf the following assay:
Assay for cleavage of AMCA substrates by FAP
Cell extract from 293 cells stably transfected with FAP prepared as described (see Park, et al., Fibroblast Activation Protein, a Dual Specificity Serine Protease expressed in human tumor stromal fibroblasts. (1999) J. Biol. Chem. 36505-12.). A similar extract was also prepared from parental 293 control cells without FAP. The FAP concentration in the FAP-transfected cell extract was estimated by immunoassay and 1 ng enzyme (diluted in buffer A) was used per assay. FAP-negative 293 control cell extract was used at the same dilution (also in buffer A) as a negative control. Substrate was initially dissolved in dimethylformamide at a concentration of 200 mM and diluted in buffer A to a final concentration of 2.5 mM. A few substrates were not soluble at this concentration and had to be diluted further.
10 μl 10% DMSO in buffer A
70 μl diluted FAP cell extract containing 1 ng FAP enzyme (OR control 293 cell extract without FAP)
Mix, incubate at room temperature for 1 hour, and measure fluorescence in Fluorostar fluorimeter at the following wavelengths:
AMCA conjugates: Excitation: 390 nm, Emission: 440 nm.
The fluorescence measured in the samples treated with control 293 control cell extracts without FAP is subtracted from the values measured in the samples treated with 1 ng FAP enzyme.

| SMILES | Cleavage | Turnover |
| --- | --- | --- |
| Cc1c(CC(=O)O)c(=O)oc2cc(NC(=O)CN(C)C(=O)CNC(=O)C(C)NC(=O)C3CCCN3C(=O)OCc3ccccc3)ccc12 (stereo not drawn) [Z-Pro-Ala-Gly-Sar-AMCA] (Cbz-PAG[Sar]-X1; configuration not given here) | 0,09 μM | 0,036% |
| Cc1c(CC(=O)O)c(=O)oc2cc(NC(=O)CN(C)C(=O)CNC(=O)OCc3ccccc3)ccc12 [Z-Gly-Sar-AMCA, Z-Gly-Sar-AMCA-OH] | 0,22 μM | 0,044% |
| Cc1c(CC(=O)O)c(=O)oc2cc(NC(=O)C(C)N(C)C(=O)CNC(=O)C(C)NC(=O)C3CCCN3C(=O)OCc3ccccc3)ccc12 (stereo not drawn) [Z-Pro-Ala-Gly-MeAla-AMCA] (Cbz-PAG[NMeA]-X1; configuration not given here) | 0,11 μM | 0,044% |
